“And” between values parts separate entries of the source, which are not always exact repeats. Equal values may be shown once. “Also recorded” adds a separate entry of the source.
Legend:
[1] = Body and organ weights at necropsy after the trial; type: in vivo, NOD.CB17‐Prkdc scid/J mice
[2] = Plasma pharmacokinetics after single ip injection (Ru by ICP‐MS); type: in vivo
Protocol: Blood was collected from submandibular vein using a heparin coated glass capillary into heparinized blood collection tubes on ice at time intervals of 1, 2, 6, 12, 24, 48, and 72 hours post injection. Plasma was harvested by centrifuging blood samples at 2800 rpm for 15 minutes at 4°C and stored frozen at − 80°C until analysis. Similarly, kidney, liver, and tumor were harvested after final time point, weighed, and stored into glass vials. One mL of deionized water was added to each tissue sample, subjected to ultrasonic homogenization at 15 W power for 1 minute, followed by lyophilization.
Plasma and tissue concentrations of Ru and Au were measured using inductively coupled plasma–mass spectrometry (ICP‐MS). Plasma (10 μL) or tissue samples were transferred into glass vials, and 1 mL of a 75:25 mixture of nitric acid (16 N) and hydrochloric acid (12 N) was added to each vial. The mixture was then heated at 90°C for 5 hours. After cooling to room temperature, the samples were centrifuged to remove debris if any. All samples were then mixed with 40 ppb of indium internal standard and analyzed using a Thermo Scientific XSERIES 2 ICP‐MS coupled with ESI PC3 Peltier cooled spray chamber, SC‐FAST injection loop, and SC‐4 autosampler. All the elements were measured using He/H2 collision‐reaction mode.
Pharmacokinetic parameters were obtained from the plasma concentration–time profiles by noncompartmental analysis using Phoenix WinNonlin 6.4 version 6.4 (Pharsight Corporation, Mountain View, CA). The pharmacokinetic parameters quantified were the maximum plasma drug concentration (Cmax), the time to reach Cmax (Tmax), the area under the plasma concentration–time curve from 0 hour to last measurable concentration (AUClast), elimination rate constant (ke), plasma half‐life (t1/2), apparent total clearance of the drug from plasma (Cl/F), and apparent volume of distribution (Vd/F). Concentrations of ruthenium and gold in liver, kidney, and tumors were also determined.

[3] = Histopathology of organs and tissues after the trial; type: in vivo, NOD.CB17‐Prkdc scid/J mice; design: key to Histopathological finding: Lungs / Histopathological finding: Thymus / Histopathological finding: Kidneys / Histopathological finding: Gallbladder / Histopathological finding: Stomach / Histopathological finding: Cecum / Histopathological finding: Colon / Histopathological finding: Mesenteric lymph node / Histopathological finding: Salivary glands / Histopathological finding: Submandibular lymph node / Histopathological finding: Uterus / Histopathological finding: Cervix / Histopathological finding: Vagina / Histopathological finding: Testes/epididymis / Histopathological finding: Prostate / Histopathological finding: Seminal vesicles / Histopathological finding: Urinary bladder / Histopathological finding: Adrenals / Histopathological finding: Ovaries / Histopathological finding: Oviducts / Histopathological finding: Trachea / Histopathological finding: Esophagus / Histopathological finding: Thyroid / Histopathological finding: Parathyroid / Histopathological finding: Mammary glands / Histopathological finding: Bones (femur, tibia, sternum, vertebrae) / Histopathological finding: Stifle joint / Histopathological finding: Skeletral muscles (hind limb, spine) / Histopathological finding: Nerves (hind limb, spine) / Histopathological finding: Spinal cord / Histopathological finding: Oral cavity / Histopathological finding: Teeth / Histopathological finding: Nasal cavity / Histopathological finding: Eyes / Histopathological finding: Harderian gland / Histopathological finding: Bones (skull) / Histopathological finding: Pituitary / Histopathological finding: Brain / Histopathological finding: Ears / Histopathological finding: Heart: N: Normal
From the text: At the end of the intervention trial, female and male NOD.CB17‐Prkdc scid/J mice bearing subcutaneous Caki‐1 tumors were euthanized, blood was collected by intracardiac puncture and the carcasses were perfused with 4% PFA. Lung, kidney, heart, spleen, lymphatic tissue were collected, mounted in paraffin, sectioned and stained by Hemotoxilyn & Eosin. Samples were imaged at 20× under light microscope for analysis.

[4] = 21 day course once/72h, mean and SEM, n = 3
[5] = Supplementary Table 3, end of trial

With “[Cl2(p‐cymene)Ru(μ‐dppm)Au(IMes)]ClO4 [RANCE‐1]” the “Average weight: Average Kidney” value [1, 4] was 0.17 ± 0.06 g, the “Average weight: Body” value [1, 4] was 21.31 ± 5.1 g and the “Average weight: Heart” value [1, 4] was 0.11 ± 0.05 g. For the same substance, the “Average weight: Liver” value [1, 4] was 1.15 ± 0.37 g, the “Average weight: Spleen” value [1, 4] was 0.04 ± 0.017 g and the Body weight [1, 5] was 18.731 g. For the same substance, the Heart weight [1, 5] was 0.078 g, the “Left Kidney weight” value [1, 5] was 0.148 g and the Liver weight [1, 5] was 0.974 g. For the same substance, the “Right Kidney weight” value [1, 5] was 0.140 g, the Spleen weight [1, 5] was 0.035 g and the “Total body weight or organ weight, treated vs control mice” value ([1]; end of the trial) was “no notable difference”. For the same substance, the “Time to reach steady state” value ([2]; 10 mg/kg ip) was 203.8 ± 93.4 h, the “AUC0‐72h” value ([2]; 10 mg/kg single ip, plasma) was 792.9 ± 270.3 µg·h/mL and the Cl/F ([2]; 10 mg/kg single ip, plasma) was 0.1667 ± 0.0525 mL/min/kg. For the same substance, the Cmax ([2]; 10 mg/kg single ip, plasma) was 22600 ± 2580 ng/mL, the Vd/F ([2]; 10 mg/kg single ip, plasma) was 0.6121 ± 0.429 L/kg and the t1/2 ([2]; 10 mg/kg single ip, plasma) was 40.8 h and 40 h and 40.77 ± 18.67 h. For the same substance, the Tmax ([2]; 10 mg/kg single ip, plasma Ru) was 10.00 ± 3.46 h, the Cminss ([2]; predicted, based on a dose of 10 mg/kg every 72 h) was 7170 ± 3910 ng/mL and the “Histological changes in liver, spleen, or kidney tissue” value ([3]; H&E, end of the 21 day efficacy trial) was “does not induce histological changes”. The “Histopathological finding: Adrenals” value ([3]; end of 21 day trial) was “N”, the “Histopathological finding: Bone marrow (femur, tibia, sternum, vertebrae)” value ([3]; end of 21 day trial) was “Moderate diffuse granulocytic hyperplasia; Moderate diffused Erythroid hypoplasia” and the “Histopathological finding: Bones (femur, tibia, sternum, vertebrae)” value ([3]; end of 21 day trial) was “N”. For the same substance, the “Histopathological finding: Bones (skull)” value ([3]; end of 21 day trial) was “N”, the “Histopathological finding: Brain” value ([3]; end of 21 day trial) was “N” and the “Histopathological finding: Cecum” value ([3]; end of 21 day trial) was “N”. The “Histopathological finding: Cervix” value ([3]; end of 21 day trial) was “N”, the “Histopathological finding: Colon” value ([3]; end of 21 day trial) was “N” and the “Histopathological finding: Duodenum, jejunum, ileum” value ([3]; end of 21 day trial) was “Mild peritonitis and serositis, neutrophilic and histiocytic, multifocal”. The “Histopathological finding: Ears” value ([3]; end of 21 day trial) was “N”, the “Histopathological finding: Esophagus” value ([3]; end of 21 day trial) was “N” and the “Histopathological finding: Eyes” value ([3]; end of 21 day trial) was “N”. The “Histopathological finding: Gallbladder” value ([3]; end of 21 day trial) was “N”, the “Histopathological finding: Harderian gland” value ([3]; end of 21 day trial) was “N” and the “Histopathological finding: Heart” value ([3]; end of 21 day trial) was “N”. For the same substance, the “Histopathological finding: Kidneys” value ([3]; end of 21 day trial) was “N”, the “Histopathological finding: Liver” value ([3]; end of 21 day trial) was “Minimal extramedullary hematopoiesis. Minimal hepatocyte hypertrophy. Mild vacuolar change (microvesicular)” and the “Histopathological finding: Lungs” value ([3]; end of 21 day trial) was “N”. For the same substance, the “Histopathological finding: Mammary glands” value ([3]; end of 21 day trial) was “N”, the “Histopathological finding: Mesenteric lymph node” value ([3]; end of 21 day trial) was “N” and the “Histopathological finding: Nasal cavity” value ([3]; end of 21 day trial) was “N”. For the same substance, the “Histopathological finding: Nerves (hind limb, spine)” value ([3]; end of 21 day trial) was “N”, the “Histopathological finding: Oral cavity” value ([3]; end of 21 day trial) was “N” and the “Histopathological finding: Ovaries” value ([3]; end of 21 day trial) was “N”. For the same substance, the “Histopathological finding: Oviducts” value ([3]; end of 21 day trial) was “N”, the “Histopathological finding: Pancreas” value ([3]; end of 21 day trial) was “Minimal peritonitis, neutrophilic and histiocytic, multifocal” and the “Histopathological finding: Parathyroid” value ([3]; end of 21 day trial) was “N”. For the same substance, the “Histopathological finding: Pituitary” value ([3]; end of 21 day trial) was “N”, the “Histopathological finding: Prostate” value ([3]; end of 21 day trial) was “N” and the “Histopathological finding: Salivary glands” value ([3]; end of 21 day trial) was “N”. For the same substance, the “Histopathological finding: Seminal vesicles” value ([3]; end of 21 day trial) was “N”, the “Histopathological finding: Skeletral muscles (hind limb, spine)” value ([3]; end of 21 day trial) was “N” and the “Histopathological finding: Spinal cord” value ([3]; end of 21 day trial) was “N”. For the same substance, the “Histopathological finding: Spleen” value ([3]; end of 21 day trial) was “Mild increase in extramedullary hematopoiesis with granulocyte hyperplasia”, the “Histopathological finding: Stifle joint” value ([3]; end of 21 day trial) was “N” and the “Histopathological finding: Stomach” value ([3]; end of 21 day trial) was “N”. For the same substance, the “Histopathological finding: Submandibular lymph node” value ([3]; end of 21 day trial) was “N”, the “Histopathological finding: Teeth” value ([3]; end of 21 day trial) was “N” and the “Histopathological finding: Testes/epididymis” value ([3]; end of 21 day trial) was “N”. For the same substance, the “Histopathological finding: Thymus” value ([3]; end of 21 day trial) was “N”, the “Histopathological finding: Thyroid” value ([3]; end of 21 day trial) was “N” and the “Histopathological finding: Trachea” value ([3]; end of 21 day trial) was “N”. The “Histopathological finding: Urinary bladder” value ([3]; end of 21 day trial) was “N”, the “Histopathological finding: Uterus” value ([3]; end of 21 day trial) was “N” and the “Histopathological finding: Vagina” value ([3]; end of 21 day trial) was “N”. The “Adverse effects / pathological complications on histological evaluation” value ([3]; forty‐seven organ and tissue types, after 21 days of treatment) was “no signs of pathological complications; also recorded: no significant adverse effects”.
